Reference: PMC11435058, “Synthesis of New Thiazole-Privileged Chalcones as Tubulin Polymerization Inhibitors with Potential Anticancer Activities” (Pharmaceuticals, 2024)
Read-outs that look alike come from different tables or passages of the source.

Assays:
[1] = test system: K-562; assay: NCI-60 anticancer screen (SRB; single dose and five doses); details: Homo sapiens, K562, 48 h, read-out: Growth Percentage
[2] = test system: UACC-62; assay: as above; details: Homo sapiens, UACC-62, 48 h, read-out: Growth Percentage
[3] = test system: RXF 393; assay: as above; details: Homo sapiens, RXF 393, 48 h, read-out: Growth Percentage
[4] = test system: MALME-3M; assay: as above; details: Homo sapiens, 48 h, read-out: Growth Percentage
[5] = test system: HT29; assay: as above; details: Homo sapiens, HT-29, 48 h, read-out: Growth Percentage
[6] = test system: NCI/ADR-RES; assay: as above; details: Homo sapiens, 48 h, read-out: Growth Percentage
[7] = test system: COLO 205; assay: as above; details: Homo sapiens, COLO 205, 48 h, read-out: Growth Percentage
[8] = test system: HS 578T; assay: as above; details: Homo sapiens, 48 h, read-out: Growth Percentage
[9] = test system: SK-MEL-5; assay: as above; details: Homo sapiens, SK-MEL-5, 48 h, read-out: Growth Percentage
[10] = test system: DU-145; assay: as above; details: Homo sapiens, DU-145, 48 h, read-out: Growth Percentage
[11] = test system: KM12; assay: as above; details: Homo sapiens, KM12, 48 h, read-out: Growth Percentage
[12] = test system: HCT-15; assay: as above; details: Homo sapiens, HCT-15, 48 h, read-out: Growth Percentage
[13] = test system: BT-549; assay: as above; details: Homo sapiens, BT-549, 48 h, read-out: Growth Percentage
[14] = test system: HOP-92; assay: as above; details: Homo sapiens, HOP-92, 48 h, read-out: Growth Percentage
[15] = test system: MDA-MB-231/ATCC; assay: as above; details: Homo sapiens, MDA-MB-231, 48 h, read-out: Growth Percentage
[16] = test system: IGROV1; assay: as above; details: Homo sapiens, IGROV-1, 48 h, read-out: Growth Percentage
[17] = test system: PC-3; assay: as above; details: Homo sapiens, PC-3, 48 h, read-out: Growth Percentage
[18] = test system: RPMI-8226; assay: as above; details: Homo sapiens, RPMI-8226, 48 h, read-out: Growth Percentage
[19] = test system: SF-268; assay: as above; details: Homo sapiens, SF-268, 48 h, read-out: Growth Percentage
[20] = test system: T-47D; assay: as above; details: Homo sapiens, T47D, 48 h, read-out: Growth Percentage
[21] = test system: CAKI-1; assay: as above; details: Homo sapiens, CAKI-1, 48 h, read-out: Growth Percentage
[22] = test system: HL-60(TB); assay: as above; details: Homo sapiens, HL-60, 48 h, read-out: Growth Percentage
[23] = test system: LOX IMVI; assay: as above; details: Homo sapiens, 48 h, read-out: Growth Percentage
[24] = test system: SR; assay: as above; details: Homo sapiens, 48 h, read-out: Growth Percentage
[25] = test system: 60 human tumor cell lines panel; assay: NCI-60 anticancer screen, whole panel (means and ranges over the cell lines); format: cell-based; details: Homo sapiens, 48 h
[26] = test system: A549/ATCC; assay: NCI-60 anticancer screen (SRB; single dose and five doses); details: Homo sapiens, A549, 48 h, read-out: Growth Percentage
[27] = test system: HOP-62; assay: as above; details: Homo sapiens, HOP-62, 48 h, read-out: Growth Percentage
[28] = test system: MOLT-4; assay: as above; details: Homo sapiens, MOLT-4, 48 h, read-out: Growth Percentage

Cc1[nH]c(=S)sc1C(=O)/C=C/c1ccc(N(C)C)cc1 [2k, (E)-3-(4-(Dimethylamino)Phenyl)-1-(4-Methyl-2-Thioxo-2,3-Dihydrothiazol-5-yl)Prop-2-En-1-One]
activity at 10 µM [1]: 47%
activity at 10 µM [2]: 58.7%
activity at 10 µM [3]: 90.8%
activity at 10 µM [4]: 79.4%
activity at 10 µM [5]: 94%
activity at 10 µM [6]: 56.9%
activity at 10 µM [7]: 115%
activity at 10 µM [8]: 118%
activity at 10 µM [9]: 51.3%
activity at 10 µM [10]: 92.8%
activity at 10 µM [11]: 62.6%
activity at 10 µM [12]: 64.4%
activity at 10 µM [13]: 82.2%
activity at 10 µM [14]: 119%
activity at 10 µM [15]: 90.3%
activity at 10 µM [16]: 82.3%
activity at 10 µM [17]: 71.7%
activity at 10 µM [18]: 41.5%
activity at 10 µM [19]: 99.3%
activity at 10 µM [20]: 32.4%
activity at 10 µM [21]: 68.6%
activity at 10 µM [22]: 87%
activity at 10 µM [23]: 60.2%
activity at 10 µM [24]: 57.4%
activity at 10 µM ([25]; read-out: growth percentages against most of the tested cells (lowest to highest)): 35.4 to 130%
activity at 10 µM ([25]; mean over the tested cell lines, dose of 10 μM, read-out: Mean growth percentage): 77.7%
activity at 10 µM [26]: 68.1%
activity at 10 µM [27]: 86.2%
activity at 10 µM [28]: 62.1%
